Reference: publication PMC2657875 (Biochemistry, 2008)
Where two headings read alike, the source gives them in different places.

Experiments:
human NAMPT [1] = target: T1, human NAMPT (Homo sapiens, UniProt P43490); experiment: ADP/ATP isotope exchange catalyzed by NAMPT; assay type: biochemical; conditions: for concentration required for half-maximal exchange activity: ADP/ATP exchange, 0.6 µM enzyme
human NAMPT [2] = target: T1, human NAMPT; experiment: NAMPT kinetic parameters with ATP; assay type: biochemical
[3] = cited from earlier work
[4] = system: human vascular smooth muscular cells; conditions: cited from earlier work
human NAMPT [5] = target: T1, human NAMPT; experiment: Inhibition of non ATP-coupled NMN synthesis; assay type: biochemical
human NAMPT [6] = target: T1, human NAMPT; experiment: Inhibition of ATP-coupled NMN synthesis; assay type: biochemical
human NAMPT [7] = target: T1, human NAMPT; conditions: continuous fluorometric coupled assay, with ATP (2.5 mM)
human NAMPT [8] = target: T1, human NAMPT; experiment: NAMPT kinetic parameters without ATP; assay type: biochemical; conditions: non ATP-coupled NMN synthesis
human NAMPT [9] = target: T1, human NAMPT; experiment: Stimulated ATPase activity of NAMPT; assay type: biochemical; conditions: 1 mM compound, 2 mM ATP; for ATP hydrolysis rate (ATPase activity): […] enzyme
[10] = system: Salmonella typhimurium NAPT; conditions: cited from earlier work

T1 sequence (P43490 whole entry): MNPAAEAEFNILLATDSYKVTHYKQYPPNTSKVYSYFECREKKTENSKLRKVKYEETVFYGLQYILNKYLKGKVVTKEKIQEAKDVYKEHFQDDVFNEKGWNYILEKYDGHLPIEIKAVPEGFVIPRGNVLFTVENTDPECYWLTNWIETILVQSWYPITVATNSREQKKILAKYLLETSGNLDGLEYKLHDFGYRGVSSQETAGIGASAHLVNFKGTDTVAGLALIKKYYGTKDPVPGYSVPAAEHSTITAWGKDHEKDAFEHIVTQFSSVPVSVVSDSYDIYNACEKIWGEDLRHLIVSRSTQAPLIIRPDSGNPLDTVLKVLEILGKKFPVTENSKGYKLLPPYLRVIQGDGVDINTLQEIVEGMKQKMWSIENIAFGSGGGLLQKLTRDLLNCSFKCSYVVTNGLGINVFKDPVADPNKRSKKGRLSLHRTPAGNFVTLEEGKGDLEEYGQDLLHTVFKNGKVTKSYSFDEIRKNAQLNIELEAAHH

**Q.** For `Nc1ncnc2c1ncn2[C@@H]1O[C@H](COP(=O)(O)OP(=O)(O)O)[C@@H](O)[C@H]1O` [ADP], which “concentration required for half-maximal exchange activity” value (human NAMPT [1]) is on record?
**A.** The value was 0.44 ± 0.05 mM.

**Q.** Which “concentration required for half-maximal exchange activity” value (human NAMPT [1]) does the source give for `Nc1ncnc2c1ncn2[C@@H]1O[C@H](COP(=O)(O)OP(=O)(O)OP(=O)(O)O)[C@@H](O)[C@H]1O` [ATP] here?
**A.** The value was 2.2 ± 0.2 mM.

**Q.** And the Km (human NAMPT [2]; ATP-coupled NMN synthesis)?
**A.** The Km was 7400 ± 1500 µM.

**Q.** What about the “concentration above which NMN synthesis is inhibited” value (human NAMPT [2]; ATP-coupled NMN synthesis) of the same molecule?
**A.** The value was “above 4 mM”.

**Q.** Which “effect on ADP/ATP exchange” value (human NAMPT [1]; 10 µM) does the source give for `Nc1ncnc2c1ncn2[C@@H]1O[C@H](COP(=O)(O)OP(=O)(O)OP(=O)(O)OP(=O)(O)OP(=O)(O)OC[C@H]2O[C@@H](n3cnc4c(N)ncnc43)[C@H](O)[C@@H]2O)[C@@H](O)[C@H]1O` [Ap5A, P^1,P^5-di(adenosine-5’-) pentaphosphate, reference compound] here?
**A.** The value was “retained the same exchange rate”.

**Q.** What does the source list for `O=C(/C=C/c1cccnc1)NCCCCC1CCN(C(=O)c2ccccc2)CC1` [FK866, (E)-N-[4-(1-benzoylpiperidin-4-yl)butyl]-3-(pyridin-3-yl) acrylamide]?
**A.** binding to plasma proteins ([3]; clinical trials): substantial drug binding to plasma proteins; bioavailability ([3]; clinical trials): low bioavailability; intravenous clearance ([3]; clinical trials): rapid intravenous clearance; objective responses ([3]; continuous intravenous infusions over 96 h for a period of 4 weeks): no objective responses; NAD+ levels [4]: low levels of NAD^+; SIRT1 activity [4]: decrease of SIRT1 activity

**Q.** With `NC(=O)C1=CN([C@@H]2O[C@H](COP(=O)(O)OP(=O)(O)OC[C@H]3O[C@@H](n4cnc5c(N)ncnc54)[C@H](O)[C@@H]3O)[C@@H](O)[C@H]2O)C=CC1` [NADH] as the molecule, how does the Ki (human NAMPT [5]; read-out: Ki versus NAM, non ATP-coupled NMN synthesis, competitive vs NAM) read?
**A.** The Ki was greater than 100000 nM.

**Q.** And the “Ratio Km/Ki (NAM)” value (human NAMPT [6]; 2.5 mM ATP)?
**A.** The value was less than 1.

**Q.** And the “Ratio Km/Ki (PRPP)” value (human NAMPT [6]; 2.5 mM ATP)?
**A.** Its value is 3.

**Q.** And the Ki (human NAMPT [6]; read-out: Ki versus NAM, 2.5 mM ATP)?
**A.** Its Ki is 3200 ± 200 nM.

**Q.** What about the Ki (human NAMPT [6]; read-out: Ki versus PRPP, 2.5 mM ATP) of the same molecule?
**A.** The Ki was 220 ± 20 nM.

**Q.** Which Ki (human NAMPT [5]) does the source give for `NC(=O)c1ccc[n+]([C@@H]2O[C@H](COP(=O)([O-])OP(=O)(O)OC[C@H]3O[C@@H](n4cnc5c(N)ncnc54)[C@H](O)[C@@H]3O)[C@@H](O)[C@H]2O)c1` [NAD^+, nicotinamide adenine dinucleotide] here?
**A.** The Ki was greater than 100000 nM.

**Q.** And the “Ratio Km/Ki (NAM)” value (human NAMPT [6]; 2.5 mM ATP)?
**A.** The value was less than 1.

**Q.** What about the “Ratio Km/Ki (PRPP)” value (human NAMPT [6]; 2.5 mM ATP) of the same molecule?
**A.** Its value is 5.

**Q.** What about the Ki (human NAMPT [6]; Ki versus NAM, 2.5 mM ATP) of the same molecule?
**A.** Its Ki is 2100 ± 200 nM.

**Q.** What about the Ki (human NAMPT [6]; Ki versus PRPP, 2.5 mM ATP) of the same molecule?
**A.** Its Ki is 140 ± 14 nM.

**Q.** For `NC(=O)c1cccnc1` [NAM, nicotinamide], which Km (human NAMPT [7]) is on record?
**A.** Its Km is 0.057 ± 0.006 µM.

**Q.** What about the Km (human NAMPT [8]; no Pi) of the same molecule?
**A.** The Km was 0.855 ± 0.022 µM.

**Q.** And the Km (human NAMPT [8]; with Pi (2 mM phosphate))?
**A.** The Km was 0.235 ± 0.017 µM.

**Q.** And the Km (human NAMPT [2]; read-out: apparent Km (affinity), direct [14C]NAM assay with ATP, NAD+ present)?
**A.** The Km was 0.017 ± 0.002 µM.

**Q.** Which “ATP hydrolysis rate (ATPase activity)” value (human NAMPT [9]) does the source give for `O=P(O)(O)NP(=O)(O)O` [PNP, imidodiphosphate, reference compound] here?
**A.** Its value is 2.6 min⁻¹.

**Q.** With `O=P(O)(O)OC[C@H]1O[C@H](OP(=O)(O)OP(=O)(O)O)[C@H](O)[C@@H]1O` [PRPP, α-D-5-phosphoribosyl-1-pyrophosphate] as the molecule, how does the Km ([10]; ATP-coupled NAMN synthesis) read?
**A.** Its Km is 22 ± 3.3 µM.

**Q.** What about the Km ([10]; non ATP-coupled NAMN synthesis) of the same molecule?
**A.** The Km was 4500 ± 2200 µM.

**Q.** And the “effect on ADP/ATP exchange” value (human NAMPT [1]; 100 µM)?
**A.** Its value is “near-complete inhibition”.

**Q.** And the “effect on ATP hydrolysis” value (human NAMPT [9])?
**A.** The value was “inhibited ATP hydrolysis”.

**Q.** And the Km (human NAMPT [8]; no Pi)?
**A.** Its Km is 7.2 ± 0.6 µM.

**Q.** What about the Km (human NAMPT [8]; with Pi (2 mM phosphate)) of the same molecule?
**A.** Its Km is 11.7 ± 0.8 µM.

**Q.** And the Km (human NAMPT [2]; ATP-coupled NMN synthesis)?
**A.** The Km was 0.63 ± 0.03 µM.

**Q.** And the “fold lowering of Km by ATP” value (human NAMPT [2]; ATP-coupled vs non ATP-coupled)?
**A.** Its value is 10 fold.

**Q.** For `O=P(O)(O)O` [Pi], which Km (human NAMPT [8]; read-out: Km of Pi) is on record?
**A.** Its Km is 180 ± 20 µM.

**Q.** Which “ATP hydrolysis rate (ATPase activity)” value (human NAMPT [9]) does the source give for `O=P(O)(O)OP(=O)(O)O` [pyrophosphate] here?
**A.** Its value is 1.1 min⁻¹.
